Test results: paper PMC5835418 (Journal of pharmaceutical and biomedical analysis, 2018)
Counter-ions that a name gives are not always drawn. Blank lines part the entries; values can stand above or below the compound they belong to.

Key:
[1] = ex vivo, data not shown
[2] = for number of freeze-thaw cycles for which stable: plasma, -80°C
[3] = Plasma concentrations in mice after rectal enema dosing of TAF or CMX157; type: in vivo
[4] = data not shown
[5] = Injection matrix stability; conditions: 72 h at 4°C, compared to the previously run curve; data not shown
[6] = cited from earlier work
[7] = human, 244 days
[8] = 72 h
[9] = following a single 25 mg dose of TAF; ref 24 (Custodio and colleagues); cited from earlier work
[10] = human, 24 h

Structure (SMILES): CCCCCCCCCCCCCCCCOCCCOP(=O)(O)CO[C@H](C)Cn1cnc2c(N)ncnc21 [CMX157, hexadecyloxypropyl tenofovir]
time up to which stable in whole blood [1]: ≤ 8 h

Structure (SMILES): CC(C)OC(=O)[C@H](C)N[P@](=O)(CO[C@H](C)Cn1cnc2c(N)ncnc21)Oc1ccccc1 [TAF, tenofovir alafenamide fumarate]
number of freeze-thaw cycles for which stable [2]: two | plasma TAF/TFV ratio ([3]; colonic administration of TAF, mice): < 1 | time for conversion of TAF into TFV ([3]; mice dosed rectally with TAF): less than 15 minutes | plasma samples with detectable systemic TAF ([3]; mice, rectal TAF): 60% | time up to which stable in whole blood [1]: up to 1 h | stability in mouse plasma as compared to human matrices [4]: less stable | injection matrix stability [5]: unstable

Structure (SMILES): CC(C)OC(=O)OCOP(=O)(CO[C@H](C)Cn1cnc2c(N)ncnc21)OCOC(=O)OC(C)C [TDF, tenofovir disoproxil fumarate]
increase in TFV bioavailability by prodrug administration [6]: 25%

long term storage stability %DIF [7]: ≤ ±10.5% | freeze-thaw stability %DIF ([2]; human): -15.2-3.04% | number of freeze-thaw cycles for which stable [2]: three | injection matrix stability %DIF [8]: −8.44-5.57% | sample matrix stability %DIF [10]: -14.5-8.45%
Structure (SMILES): C[C@H](Cn1cnc2c(N)ncnc21)OCP(=O)(O)O [TFV, tenofovir]
Cmax [9]: 9.5 ng/mL
